Earlier results in patent publication US4867987A, “Pharmaceutical product for the sustained release of ibuprofen” (priority 1986, dated 1989).

Structure (SMILES): CC(C)Cc1ccc(C(C)C(=O)O)cc1 (stereo not shown) [ibuprofen, 2-(4-isobutylphenyl)propionic acid]
- complete elimination of ibuprofen and its metabolites after the last administration: ≤ 24 h
